Several values for one entry are separate records, joined by “and”; a condition that tells them apart may be missing. Equal entries are not always repeated.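 Values below derive from 48-hour exposures of cells grown in 96-well plates, with endpoints linearly interpolated between the two concentrations bracketing the appropriate inhibition level. Abbreviation: GI50, concentration required for 50% inhibition of growth. TGI: concentration producing complete growth inhibition.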 Where only a bound is given, the exact number is not on record here.

Holding throughout (experiment): NCI-60 cell line screen, 48 h
The test system of assay [1] is HCT-15 colon.
In assay [2] the test system is SF-268 CNS.
The subject of assay [3] is OVCAR-5 ovarian.
Assay [4] deals with K-562 leukemia.
Assay [5] has as its system OVCAR-3 ovarian.
Assay [6] has as its system LOX IMVI melanoma.
In assay [7] the test system is PC-3 prostate.
The subject of assay [8] is TK-10 renal.
The test system of assay [9] is HOP-62 NSCLC.
Assay [10] deals with BT-549 breast.

On to `COc1ccc(CC2C(=O)NC(C)C(=O)N(C)C3Cc4ccc(cc4)Oc4cc(ccc4O)CC(C(=O)NC(C)C(=O)NC(C)C(=O)N2C)N(C)C3=O)cc1` (stereo not given), for which the GI50 in assay [1] was 1.27 µM; in [2] it was under 0.0001 µM; in [4], under 0.0001 µM; in [5], 0.000244 µM; in assay [6], under 0.0001 µM; in assay [9], 0.00218 µM. The TGI in [1] is 14.9 µM; in [3] it was 0.0305 µM and 0.0607 µM; in [4], 2.01 µM; in assay [5] it was 0.0438 µM; in assay [7] it was 0.000246 µM; in [8], 0.979 µM and 0.21 µM.
As for `CCOC(=O)C(Cc1c(-c2[nH]c3ccccc3c2CC(NC(=O)CNC(C)=O)C(=O)OCC)[nH]c2ccccc12)NC(=O)CNC(C)=O` (stereo not given), the TGI in assay [1], in assay [2], in [3], in [10], in [5] and in assay [7] was over 100 µM each time. In addition, the TGI in [8] and in [9] was over 100 µM in each case.
`CCN(CC)c1ccc(C(=C2C=CC(=[N+](CC)CC)C=C2)c2ccccc2)cc1`: the TGI in [1] amounted to 0.587 µM; in [2], 0.195 µM; in assay [3] it was 0.342 µM; in assay [4], 0.0968 µM; in assay [6] it was 0.105 µM; in assay [9], 0.491 µM.
On to `Cn1c(=O)c2[nH]c(N/N=C3/SCC(=O)N3Cc3ccccc3)nc2n(C)c1=O`, for which the TGI in assay [1], in assay [2], in assay [3], in assay [10], in assay [4] and in assay [5] was over 100 µM throughout. Further, the TGI in assay [7], in assay [8] and in [9] was over 100 µM in each case.
Consider `COc1cc(/C=C2\C[C@H]3[C@@H]4CC=C5C[C@@H](N6CCCC6)CC[C@]5(C)[C@H]4CC[C@]3(C)[C@H]2OC(C)=O)cc(OC)c1OC`, for which the TGI worked out at 25.1 µM in [1]; 27.7 µM in assay [2]; 29.7 µM in [3]; 28.1 µM in [10]; 29.8 µM in assay [5]; 27.2 µM in assay [7]. In addition, the TGI in [8] is 34.8 µM; in [9] it was 29.3 µM.
Regarding `CCOc1cc(C=O)ccc1O`, the TGI in assay [1], in assay [2], in [3], in assay [4], in assay [5] and in [6] was over 100 µM in each case. For the same compound, the TGI in assay [7], in assay [8] and in assay [9] was over 100 µM in each case.
Take `COc1ccc(S(=O)(=O)Nc2ccc(-c3csc(N4C(=O)/C(=C/C=C\c5ccccc5)N=C4c4ccccc4)n3)cc2)cc1Cl`: the TGI in [1] was 51.5 µM; in assay [2], 56.3 µM; in assay [3], over 100 µM; in [4] it was over 100 µM; in assay [5], over 100 µM; in assay [6], 46.3 µM. The TGI in assay [7], in assay [8] and in assay [9] was over 100 µM each time.
With `c1csc(-c2ccc(-c3ccc(-c4cccs4)s3)s2)c1`, the TGI in assay [1], in assay [2], in assay [3], in [10], in assay [5] and in [6] was over 100 µM in each case. The TGI in [7], in [8] and in assay [9] was over 100 µM throughout.
Regarding `COc1cc2c(cc1OC)C1Cc3ccccc3CN1CCC2` (stereo not given), the TGI in assay [1], in assay [2], in assay [3], in [4], in assay [5] and in assay [6] was over 100 µM throughout. Moreover, the TGI in [7], in assay [8] and in assay [9] was over 100 µM in each case.
On to `C=C1C(=O)O[C@H]2C(=O)[C@H](C)CCC[C@@](C)(O)/C=C\C[C@@]3(C)O[C@@H]3C[C@@H]12`, for which the TGI in assay [1] turned out to be 25.9 µM; in assay [2] it was 50.8 µM; in [3], 3.64 µM; in assay [5], 24.3 µM; in [6], 32.2 µM; in assay [7] it was 38.6 µM. The compound also showed a TGI in assay [8] of 15.1 µM.
For the compound `CSc1nc(Br)nc2c1ncn2C1CC(Oc2ccc(C)cc2)C(COc2ccc(C)cc2)O1` (stereo not given), the TGI in assay [1], in assay [2], in assay [3], in assay [10], in assay [5] and in assay [6] was over 100 µM throughout. Further, the TGI in assay [7], in assay [8] and in assay [9] was over 100 µM each time.
For the compound `COc1cc([C@@H]2c3cc4c(cc3[C@@H](Nc3ccc(Cl)cc3C(=O)c3ccccc3Cl)[C@H]3COC(=O)[C@H]23)OCO4)cc(OC)c1OC`, the TGI in assay [2] is over 100 µM; in assay [3], over 100 µM; in assay [10], over 100 µM; in assay [4] it was over 100 µM; in assay [5], 6.4 µM; in assay [6], over 100 µM. Further, the values for the TGI in [8] and in assay [9] were over 100 µM and 16.9 µM, respectively.
Consider `COc1ccc([C@@]23CCC(=O)C[C@@H]2N(C)CC3)cc1OC`, for which the TGI in assay [1], in assay [2], in [3], in assay [4], in assay [5] and in assay [6] was over 100 µM each time. The TGI in assay [7], in assay [8] and in assay [9] was over 100 µM each time.
With `O=C(Nc1ccccc1)N1N=C(c2ccccc2)C1c1ccccc1` (stereo not given), the TGI in assay [1] was over 100 µM; in assay [2] it was 50.8 µM; in [3] it was over 100 µM; in assay [10], 64.4 µM; in assay [5], 42.1 µM; in assay [6] it was 89.6 µM. For the same compound, the results for the TGI in assay [7] and in [8] were 35.3 µM and over 100 µM, respectively.

Source of the values: PubChem BioAssay (NCI).
